Data: patent US20250332173A1, “COMPOUNDS AND METHODS FOR MODULATING NUCLEIC ACID SPLICING” (REMIX THERAPEUTICS INC., priority 2021, published 2025)
pIC50: −log10 of the molar value. Where two headings read alike, the source gives them in different places.

Key:
Type in all cases: cell-based, human
MYB mRNA = assay: RT-qPCR splicing assay, MYB canonical junction (CJ) and alternative junction (AJ) mRNA; details: Homo sapiens; for AC50: increase in MYB alternative junction (AJ) mRNA, read-out: MYB AJ AC50
Outline: (§1)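 Read-out is one-step RT-qPCR on cell lysates detecting the exon-exon junction of each isoform, normalized to a housekeeping gene (PPIA in A673, GAPDH or GUSB in K562).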

HTT mRNA = assay: RT-qPCR splicing assay, HTT canonical junction (CJ) and alternative junction (AJ) mRNA; details: Homo sapiens; for AC50: increase in HTT alternative junction (AJ) mRNA, read-out: HTT AJ AC50
Outline: as §1

SMN2 mRNA = assay: RT-qPCR splicing assay, SMN2 canonical junction (CJ) mRNA; details: Homo sapiens; Table 5 panel; canonical junction qPCR; compound concentration having 50% response in CJ decrease; read-out: SMN2 IC50 (decrease in CJ mRNA levels)
Outline: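 A673 cells (DMEM/10% FBS) or K562 cells (IMDM/10% FBS) were treated 24 h at 37° C. with 11-point 3-fold dilutions (top 10 uM, ≤0.25% DMSO). Canonical-junction mRNA was quantified in lysates by RT-qPCR, normalized to GAPDH, GUSB or PPIA.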

[1] = Table 5 panel, canonical junction qPCR, compound concentration having 50% response in CJ decrease, read-out: MYB IC50 (decrease in CJ mRNA levels)
[2] = decrease in MYB canonical junction (CJ) mRNA, RT-qPCR, read-out: MYB CJ IC50
[3] = decrease in HTT canonical junction (CJ) mRNA, RT-qPCR, read-out: HTT CJ IC50
[4] = Table 5 panel, canonical junction qPCR, compound concentration having 50% response in CJ decrease, read-out: HTT IC50 (decrease in CJ mRNA levels)

Structure (SMILES) | pIC50 (MYB mRNA; [1]) | pIC50 (MYB mRNA; [2]) | pIC50 (HTT mRNA; [3]) | pIC50 (HTT mRNA; [4]) | pIC50 (SMN2 mRNA) | AC50 (MYB mRNA; RT-qPCR) [µM] | AC50 (HTT mRNA; RT-qPCR) [µM]
Cc1cn2cc(-c3cc(F)c4c(=O)n(C5CCNC5)ccc4c3)cc(C#N)c2n1 (stereo not drawn) [Compound 434, 6-[8-fluoro-1-oxo-2-(pyrrolidin-3-yl)isoquinolin-6-yl]-2-methylimidazo[1,2-a]pyridine-8-carbonitrile] | 6.00 to 7.00 | 6.00 to 7.00 | < 5.00 | < 5.00 | > 7.00 | 0.1 to 1 | > 10
Cc1cn2cc(-c3ccc4c(=O)n(C5CCNCC5)cc(C)c4c3)cc(F)c2n1 [Compound 440, 6-{8-fluoro-2-methylimidazo[1,2-a]pyridin-6-yl}-4-methyl-2-(piperidin-4-yl)isoquinolin-1-one] | > 7.00 | > 7.00 | 6.00 to 7.00 | 6.00 to 7.00 | > 7.00 | < 0.1 | 0.1 to 1
Cc1cn2cc(-c3ccc4c(=O)n(C5CCNC5)cc(C)c4c3)cc(F)c2n1 (stereo not drawn) [Compound 441, 6-{8-fluoro-2-methylimidazo[1,2-a]pyridin-6-yl}-4-methyl-2-(pyrrolidin-3-yl)isoquinolin-1-one] | 5.00 to 6.00 | 5.00 to 6.00 | < 5.00 | < 5.00 | 6.00 to 7.00 | 1 to 10 | > 10
Cc1cn2cc(-c3ccc4c(=O)n(C5CCNC5)cc(C)c4c3)cc(C#N)c2n1 (stereo not drawn) [Compound 442, 2-methyl-6-[4-methyl-1-oxo-2-(pyrrolidin-3-yl)isoquinolin-6-yl]imidazo[1,2-a]pyridine-8-carbonitrile] | < 5.00 | < 5.00 | < 5.00 | < 5.00 | 5.00 to 6.00 | > 10 | > 10
Cc1cn2nc(-c3ccc4c(=O)n([C@H]5CCNC6(CC6)C5)ccc4c3)cc(C)c2n1 [Compound 445] | > 7.00 | > 7.00 | > 7.00 | > 7.00 | > 7.00 | < 0.1 | < 0.1
Cc1cn2nc(-c3cc(F)c4c(=O)n([C@@H]5CCNC6(CC6)C5)ncc4c3)cc(C)c2n1 [Compound 446] | > 7.00 | > 7.00 | > 7.00 | > 7.00 | > 7.00 | < 0.1 | < 0.1
Cc1cn2nc(-c3cc(F)c4c(=O)n([C@H]5CCNC6(CC6)C5)ncc4c3)cc(C)c2n1 [Compound 447] | > 7.00 | > 7.00 | > 7.00 | > 7.00 | > 7.00 | < 0.1 | < 0.1
Cc1cn2nc(-c3cc4ccn(C5CCNCC5)c(=O)c4cc3O)cc(C)c2n1 [Compound 448, 6-{2,8-dimethylimidazo[1,2-b]pyridazin-6-yl}-7-hydroxy-2-(piperidin-4-yl)isoquinolin-1-one] | > 7.00 | > 7.00 | > 7.00 | > 7.00 | > 7.00 | < 0.1 | < 0.1
COc1cc2c(=O)n(C3CCNCC3)ccc2cc1-c1cc(C)c2nc(C)cn2n1 [Compound 449, 6-{2,8-dimethylimidazo[1,2-b]pyridazin-6-yl}-7-methoxy-2-(piperidin-4-yl)isoquinolin-1-one] | < 5.00 | < 5.00 | < 5.00 | < 5.00 | < 5.00 | > 10 | > 10

Continued, in another order:

pIC50 (MYB mRNA; [1]) | pIC50 (MYB mRNA; [2]) | pIC50 (HTT mRNA; [3]) | pIC50 (HTT mRNA; [4]) | pIC50 (SMN2 mRNA) | Structure (SMILES) | AC50 (MYB mRNA; RT-qPCR) [µM] | AC50 (HTT mRNA; RT-qPCR) [µM]
5.00 to 6.00 | 5.00 to 6.00 | < 5.00 | < 5.00 | > 7.00 | Cc1cn2cc(-c3ccc4c(=O)n([C@@H]5CCNC5)cc(C)c4c3)cc(F)c2n1 [Compound 452, (R)-6-(8-fluoro-2-methylimidazo[1,2-a]pyridin-6-yl)-4-methyl-2-(pyrrolidin-3-yl)isoquinolin-1(2H)-one] | 1 to 10 | > 10
< 5.00 | < 5.00 | < 5.00 | < 5.00 | < 5.00 | Cc1cn2c(n1)CCC(c1ccc3c(=O)n(C4CCNCC4)ccc3c1)C2 (stereo not drawn) [Compound 453, 6-{2-methyl-5H,6H,7H,8H-imidazo[1,2-a]pyridin-6-yl}-2-(piperidin-4-yl)isoquinolin-1-one] | > 10 | > 10
< 5.00 | < 5.00 | < 5.00 | < 5.00 | 5.00 to 6.00 | Cc1cn2cc(-n3ccc4cc(N5C[C@@H](C)N[C@@H](C)C5)ccc4c3=O)nc(C)c2n1 [Compound 454, 2-{2,8-dimethylimidazo[1,2-a]pyrazin-6-yl}-6-[(3R,5S)-3,5-dimethylpiperazin-1-yl]isoquinolin-1-one] | > 10 | > 10
< 5.00 | < 5.00 | < 5.00 | < 5.00 | 5.00 to 6.00 | Cc1cn2cc(-c3ccc4c(=O)n([C@H]5CCNC5)cc(C)c4c3)cc(C#N)c2n1 [Compound 456, (S)-2-methyl-6-(4-methyl-1-oxo-2-(pyrrolidin-3-yl)-1,2-dihydroisoquinolin-6-yl)imidazo[1,2-a]pyridine-8-carbonitrile] | > 10 | > 10
> 7.00 | > 7.00 | 6.00 to 7.00 | 6.00 to 7.00 | > 7.00 | Cc1cn2cc(-c3cc(F)c4c(=O)n(C5CCNCC5)cc(C)c4c3)cc(F)c2n1 [Compound 461, 8-fluoro-6-{8-fluoro-2-methylimidazo[1,2-a]pyridin-6-yl}-4-methyl-2-(piperidin-4-yl)isoquinolin-1-one] | < 0.1 | 0.1 to 1
5.00 to 6.00 | 5.00 to 6.00 | 5.00 to 6.00 | 5.00 to 6.00 | 6.00 to 7.00 | Cc1cn2nc(-c3cc(O)c4c(=O)n(C5CCNC5)cc(C)c4c3)cc(C)c2n1 (stereo not drawn) [Compound 462] | 1 to 10 | 1 to 10
< 5.00 | < 5.00 | < 5.00 | < 5.00 | 5.00 to 6.00 | Cn1cc2c(n1)CCN(c1ccc3c(=O)n(C4CCNCC4)ccc3c1)C2 [Compound 509, 6-{2-methyl-4H,6H,7H-pyrazolo[4,3-c]pyridin-5-yl}-2-(piperidin-4-yl)isoquinolin-1-one] | > 10 | > 10
5.00 to 6.00 | 5.00 to 6.00 | 5.00 to 6.00 | 6.00 to 7.00 | > 7.00 | Cc1cn2cc(-c3ccc4c(=O)n(C5CCNC6(CC6)C5)ncc4c3)cc(Cl)c2n1 (stereo not drawn) [Compound 510] | 1 to 10 | 0.1 to 1
6.00 to 7.00 | 6.00 to 7.00 | 6.00 to 7.00 | 6.00 to 7.00 | > 7.00 | Cn1cc2nc(-c3ccc4c(=O)n(C5CCNC6(CC6)C5)ncc4c3)ccc2n1 (stereo not drawn) [Compound 511] | 0.1 to 1 | 0.1 to 1
